# In article PMC7985170, “Marine Peptide-N6NH2 and Its Derivative-GUON6NH2 Have Potent Antimicrobial Activity Against Intracellular Edwardsiella tarda in vitro and in vivo” (Frontiers in Microbiology, 2021):
# Where a SMILES comes first, the peptide text is derived from it. Bridges are numbered along the chain shown (N, C = ends). The star is where a group is joined. Orn(α-tetramethylguanidino) = CN(C)C(=N[C@@H](CCCN)C(=O)*)N(C)C
# Columns and labels:
# [1] = format: cell-based, Streptococcus enteritidis
# Procedure: (§1) The antimicrobial activity of peptides was determined by the microbroth dilution method ([Zhang et al., 2014]). The bacterial strains were incubated in Mueller-Hinton (MH) medium at 28°C or 37°C overnight. Bacteria (1 × 10^5 CFU/mL) were added into 96-well plates, followed by the addition of serial dilutions of peptides (from 0.0625 to 128 μg/mL). The plates were incubated at 37°C for 18–24 h. The minimal inhibitory concentration (MIC) value was determined as the lowest peptide concentration at which no bacterial growth was observed.
# [2] = tested on: Gram-negative bacteria; assay: Geometric mean of MICs and therapeutic index; format: cell-based; details: for GM Gram-negative bacteria: geometric mean (GM) of MICs against Gram-negative bacteria; for TI Gram-negative bacteria: therapeutic index (TI), cell selectivity
# Procedure: as §1
# The geometric mean (GM) of MICs of peptides against Gram-negative and Gram-positive bacteria was calculated, and the result was shown in Table 3. […] For Gram-negative bacteria, the TI value of GUON6NH2 (53.33) was very close to N6NH2 (58.18), while for positive bacteria, the TI value of GUON6NH2 (12.8) was slightly higher than that of N6NH2 (12.31), indicating their huge therapeutic potential. For Gram-positive bacteria, DN6NH2 had the highest TI value and the best therapeutic potential.
# [3] = tested on: E. tarda; assay: Time-killing curve; format: cell-based, Edwardsiella tarda; details: 2× or 4× MIC, MHB, 1 × 10^5 CFU/mL, 28°C
# Procedure: Time-killing curve of peptides was performed according to the previous method ([Flamm et al., 2019]). E. tarda was cultured to logarithmic phase, diluted in Mueller Hinton broth (MHB) (1 × 10^5 CFU/mL) containing 1×, 2×, or 4× MIC of peptides, and cultured at 28°C (200 rpm). PBS was added as a control. Bacterial samples (100 μL) were removed at different time intervals (0, 0.5, 1, 1.5, 2, 4, 6, 8, 10, 12, 22, and 24 h) and were counted on MH solid plates. The time-killing curves of peptides were plotted. Bacterial cells treated with 2× MIC norfloxacin and without treatment were used as the positive and blank controls, respectively.
# [4] = tested on: E. tarda; assay: Post-antibiotic effect (PAE); format: cell-based, Edwardsiella tarda; details: for PAE: 2 h exposure, E. tarda, 28°C, n = 3
# Procedure: E. tarda cells were incubated with peptides (1×, 2×, or 4× MIC) for 2 h, diluted, and cultured at 28°C and 200 rpm. An aliquot of samples (50 μL) were taken for CFU counts at different time intervals until bacterial cultures became turbid. Bacteria treated with the N6NH2, GUON6NH2 or vancomycin were used as the positive control; bacteria without treatment were used as the blank control. The PAE was calculated using the following formula: PAE = T–C, where T is the time for the CFU counts to increase by 10-fold above the count observed immediately after drug removal, and C is the corresponding time for the untreated control ([Oh et al., 2019]).
# [5] = tested on: LPS; assay: LPS binding, BODIPY-TR-cadaverine (BC) probe displacement; details: 0.5 μM LPS, 5 μM BC, Tris buffer pH 7.4; peptides 0.049 to 50 μM
# Procedure: The BODIPY’-TR-cadaverine (BC) probe was used to determine the ability of peptides to bind to LPS ([Wang et al., 2020]). 0.5 μM LPS was incubated with 5 μM BC in […] Tris buffer (pH 7.4) for 4 h at 37°C. Subsequently, the peptides were added into the mixture and the final concentrations of peptides ranged from 0.049 to 50 μM. Ampicillin was used as the negative control. Changes in fluorescence were measured by a fluorescence spectrophotometry at room temperature (excitation/emission, 580/620 nm).
# [6] = tested on: E. tarda; assay: SEM and TEM morphology; format: cell-based, Edwardsiella tarda; details: 4× MIC, 2 h
# Procedure: To further characterize the bactericidal effects of the peptides, scanning electron microscopy (SEM) and transmission electron microscopy (TEM) were used to visualize morphological changes ([Yang et al., 2019]). E. tarda was cultured to logarithmic growth stage (10^8 CFU/mL) and diluted with 0.01 M PBS (pH 7.4) to OD600 nm = 1. E. tarda cells were treated with 4× MIC peptides at 37°C for 2 h and the untreated cells were used as the control. Briefly, after centrifugation, the bacterial cells were washed three times with 0.1 M PBS (pH 7.2) and fixed overnight at 4°C with 2.5% glutaraldehyde. After washing again, the cells were fixed with 1% osmium tetroxide (OsO4) for 2 h and dehydrated in a graded ethanol series (50%–70%–85%–95% × 2–100%, × 2) for 15 min, respectively. The samples were then dried by CO2, sputtered with gold-palladium, and observed on a QUANTA200 SEM (FEI, Philips, Netherlands).
# E. tarda cells were treated peptides before fixation as described above. The bacteria were washed with 0.01 M PBS (pH 7.4) for five times, 7 min each time, and fixed with 1% osmium acid buffer (4°C) for 1 h. After dehydration with a graded acetone series (30%–50%–70%–85%–95%–100% × 3), the cells were immersed in mixtures of acetone and resin (3:1, 1:1 and 1:3, respectively) for 40 min and in a pure epoxy resin overnight. The samples were then embedded in embedding medium and polymerized at 45°C for 3 h and at 65°C for 24 h, respectively. The sections were prepared using an ultramicrotome, stained with 1% uranyl acetate, and visualized by a JEM1400 (JEDL, Tokyo, Japan).
# [7] = tested on: intracellular E. tarda in RAW 264.7 macrophages; format: cell-based, Edwardsiella tarda; details: for killing of intracellular bacteria: 5–50× MIC, RAW 264.7; for killing of intracellular bacteria / killing efficacy against intracellular E. tarda: 18 h; for killing efficacy against intracellular E. tarda: 1
# Procedure: For intracellular activity, RAW 264.7 macrophages (2.5 × 10^5 cells/mL) were cultured for 24 h in DMEM with 10% FBS (without antibiotics) ([Edwards and Massey, 2011]). Meanwhile, mid-log phase E. tarda were collected by centrifugation, diluted to a concentration of 2.5 × 10^8 CFU/mL in DMEM with 10% FBS (without antibiotic), and incubated with RAW 264.7 macrophages for 0.5 h. Gentamicin (1,000 μg/mL) was then added into the cells and incubated for 30 min to remove extracellular bacteria. After washing twice with PBS, […], washed again, and lysed with Hanks buffered saline solution (0.1% bovine serum albumin and 0.1% Triton-X). The numbers of intracellular bacteria were counted at 0 and 18 h, respectively.
# [8] = tested on: E. tarda; assay: Post-antibiotic effect (PAE); format: cell-based, Edwardsiella tarda; details: 4× MIC
smiles,measurement,setting,value
CC(C)[C@@H]1NC(=O)CNC(=O)[C@H](CC(N)=O)NC(=O)[C@H](CCCNC(=N)N)NC(=O)[C@H](Cc2ccc(O)cc2)NC(=O)[C@H](C(C)C)NC(=O)[C@@H](NC(=O)[C@@H](NC(=O)[C@H](CC(N)=O)NC(=O)[C@H](Cc2c[nH]c3ccccc23)NC(=O)[C@H](C)NC(=O)[C@H](Cc2ccccc2)NC(=O)[C@H](CCCN)N=C(N(C)C)N(C)C)C(C)C)CSSC[C@@H](C(=O)N[C@@H](Cc2c[nH]cn2)C(=O)N[C@@H](CCCNC(=N)N)C(=O)N[C@@H](CCCNC(=N)N)C(=O)N[C@@H](C)C(=O)N[C@@H](CC(N)=O)C(N)=O)NC(=O)[C@H](C(C)C)NC(=O)[C@H](CCCNC(=N)N)NC1=O [GUON6NH2] ({Orn(α-tetramethylguanidino)}-FAWNVCVYRNGVRVCHRRAN-NH2; disulfide 6-15),MIC,[1],2 µg/mL
same,GM Gram-negative bacteria,[2],4.8 µg/mL
same,TI Gram-negative bacteria,[2],53.33
same,time to completely kill E. tarda,[3],≤ 6 h
same,PAE,[4]; 1× MIC,1.54 h
same,PAE,[4]; 2× MIC,1.51 h
same,"PAE, times longer than that of N6NH2",[4]; 4× MIC,2.65 times
same,PAE,[4]; 4× MIC,3.97 h
same,ability to bind to LPS (BC probe displacement),[5],V112N6NH2 > GUON6NH2 > N6NH2 > DN6NH2 > N6PNH2
same,morphological changes by SEM,[6],some protrusions were observed on the cell surfaces
same,killing of intracellular bacteria,[7],killed all intracellular bacteria
same,killing efficacy against intracellular E. tarda,[7],over 97.07%
same,"PAE, times longer than that of norfloxacin",[8],1.27 times
CC(C)[C@@H]1NC(=O)CNC(=O)[C@H](CC(N)=O)NC(=O)[C@H](CCCNC(=N)N)NC(=O)[C@H](Cc2ccc(O)cc2)NC(=O)[C@H](C(C)C)NC(=O)[C@@H](NC(=O)[C@@H](NC(=O)[C@H](CC(N)=O)NC(=O)[C@H](Cc2c[nH]c3ccccc23)NC(=O)[C@H](C)NC(=O)[C@H](Cc2ccccc2)NC(=O)CN)C(C)C)CSSC[C@@H](C(=O)N[C@@H](Cc2cnc[nH]2)C(=O)N[C@@H](CCCNC(=N)N)C(=O)N[C@@H](CCCNC(=N)N)C(=O)N[C@@H](C)C(=O)N[C@@H](CC(N)=O)C(N)=O)NC(=O)[C@H](C(C)C)NC(=O)[C@H](CCCNC(=N)N)NC1=O [N6NH2],MIC,[1],2 µg/mL
same,GM Gram-negative bacteria,[2],4.4 µg/mL
same,TI Gram-negative bacteria,[2],58.18
same,time to completely kill E. tarda,[3],≤ 6 h
same,PAE,[4]; 1× MIC,1.75 h
same,PAE,[4]; 2× MIC,1.67 h
same,PAE,[4]; 4× MIC,1.5 h
same,ability to bind to LPS (BC probe displacement),[5],V112N6NH2 > GUON6NH2 > N6NH2 > DN6NH2 > N6PNH2
same,morphological changes by SEM,[6],some protrusions were observed on the cell surfaces
same,killing of intracellular bacteria,[7],killed all intracellular bacteria
same,killing efficacy against intracellular E. tarda,[7],96.82%
same,intracellular inhibition rate against E. tarda,"[7]; 24 h, 50",96.82–100%
